Test results: patent publication US10294229B2, “Heteroaryl substituted aminopyridine compounds” (BRISTOL-MYERS SQUIBB COMPANY, priority 2015, dated 2019)

Biological target: IRAK4 (Homo sapiens (Human), UniProt Q9NWZ3)
Assay: IRAK4 Inhibition Assay
Format: biochemical
Settings: ATP 500 μM; IRAK4 0.6 nM
Procedure: The assays were performed in U-bottom 384-well plates. The final assay volume was 30 μL prepared from 15 μL additions of enzyme and substrates (fluoresceinated peptide and ATP) and test compounds in assay buffer (20 mM HEPES pH 7.2, 10 mM MgCl2, 0.015% Brij 35 and 4 mM DTT). The reaction was initiated by the combination of IRAK4 with substrates and test compounds. The reaction mixture was incubated at room temperature for 60 min. and terminated by adding 45 μL of 35 mM EDTA to each sample. The reaction mixture was analyzed on the Caliper LABCHIP® 3000 (Caliper, Hopkinton, Mass.) by electrophoretic separation of the fluorescent substrate and phosphorylated product. Inhibition data were calculated by comparison to no enzyme control reactions for 100% inhibition and vehicle-only reactions for 0% inhibition. The final concentrations of reagents in the assays are ATP, 500 μM; FL-IPTSPITTTYFFFKKK peptide 1.5 μM; IRAK4, 0.6 nM; and DMSO, 1.6%.

Sequence of IRAK4 (Q9NWZ3 whole entry, species assumed): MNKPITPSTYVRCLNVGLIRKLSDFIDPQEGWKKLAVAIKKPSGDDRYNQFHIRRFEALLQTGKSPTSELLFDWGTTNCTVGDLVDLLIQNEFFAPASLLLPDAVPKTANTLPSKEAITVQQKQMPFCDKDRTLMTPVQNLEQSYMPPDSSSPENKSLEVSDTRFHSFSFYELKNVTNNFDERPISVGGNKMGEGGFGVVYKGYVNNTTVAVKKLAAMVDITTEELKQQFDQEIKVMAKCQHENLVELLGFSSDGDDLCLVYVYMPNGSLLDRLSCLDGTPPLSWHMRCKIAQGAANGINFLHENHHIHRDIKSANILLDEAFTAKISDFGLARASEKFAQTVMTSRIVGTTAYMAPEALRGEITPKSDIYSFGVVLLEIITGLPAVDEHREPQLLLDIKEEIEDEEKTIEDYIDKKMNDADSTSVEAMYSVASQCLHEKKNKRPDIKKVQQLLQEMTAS

SMILES | IC50 [µM]
CC(C)Nc1cc(-n2ncc3cc(C#N)cnc32)ncc1-c1cn(CC(O)Cc2ccccc2)nn1 (single isomer, unassigned) [Example 77, 1-(5-(1-(2-hydroxy-3-phenylpropyl)-1H-1,2,3-triazol-4-yl)-4-(isopropylamino)pyridin-2-yl)-1H-pyrazolo [3,4-b]pyridine-5-carbonitrile] | 0.021
CC(C)Nc1cc(-n2ncc3cc(C#N)cnc32)ncc1-n1cc(CCCN)cn1 [Example 251, 1-(5-(4-(3-aminopropyl)-1H-pyrazol-1-yl)-4-(isopropylamino)pyridin-2-yl)-1H-pyrazolo[3,4-b]pyridine-5-carbonitrile] | 0.039
CC(C)(O)CCc1cn(-c2cnc(-n3ncc4cc(C#N)cnc43)cc2N[C@H]2CC[C@@H](F)CC2)nn1 [Example 374, 1-(4-(((1r,4r)-4-fluorocyclohexyl)amino)-5-(4-(3-hydroxy-3-methylbutyl)-1H-1,2,3-triazol-1-yl)pyridin-2-yl)-1H-pyrazolo[3,4-b]pyridine-5-carbonitrile] | 0.002
CC(C)Nc1cc(-n2ncc3cc(C#N)cnc32)ncc1-c1cn(CC2(O)CCN(C(=O)OC(C)(C)C)CC2)nn1 [Example 132, tert-butyl 4-((4-(6-(5-cyano-1H-pyrazolo[3,4-b]pyridin-1-yl)-4-(isopropylamino)pyridin-3-yl)-1H-1,2,3-triazol-1-yl)methyl)-4-hydroxypiperidine-1-carboxylate] | 0.051
CCCc1cn(-c2cnc(-n3ncc4cc(C#N)cnc43)cc2NCC(C)(C)O)nn1 [Example 287, 1-(4-((2-hydroxy-2-methylpropyl)amino)-5-(4-propyl-1H-1,2,3-triazol-1-yl)pyridin-2-yl)-1H-pyrazolo[3,4-b]pyridine-5-carbonitrile] | 0.034
CC(C)CCn1cc(-c2cnc(-n3ncc4cc(Cl)cnc43)cc2NC(C)C)nn1 [Example 217, 2-(5-chloro-1H-pyrazolo [3,4-b]pyridin-1-yl)-5-(1-isopentyl-1H-1,2,3-triazol-4-yl)-N-isopropylpyridin-4-amine] | 0.006
COC(=O)N1CC[C@@H](n2cc(-c3cnc(-n4ncc5cc(C#N)cnc54)cc3NC(C)C)nn2)[C@H](O)C1 (single isomer, unassigned) [Example 205] | 0.005
CC(=O)N[C@H]1CC[C@H](c2cc(-c3cnc(-n4ncc5cc(C#N)cnc54)cc3NC(C)C)on2)CC1 [Example 410, N-((1s,4s)-4-(5-(6-(5-cyano-1H-pyrazolo[3,4-b]pyridin-1-yl)-4-(isopropylamino)pyridin-3-yl)isoxazol-3-yl)cyclohexyl)acetamide] | 0.002
CC(C)Nc1cc(-n2ncc3cc(C#N)cnc32)ncc1-n1cc(CC(C)(C)O)nn1 [Example 306, 1-(5-(4-(2-hydroxy-2-methylpropyl)-1H-1,2,3-triazol-1-yl)-4-(isopropylamino)pyridin-2-yl)-1H-pyrazolo[3,4-b]pyridine-5-carbonitrile] | 0.056
Cc1ccn(-c2cnc(-n3ncc4cc(C#N)cnc43)cc2NC(C)C)n1 [Example 246, 1-(4-(isopropylamino)-5-(3-methyl-1H-pyrazol-1-yl)pyridin-2-yl)-1H-pyrazolo[3,4-b] pyridine-5-carbonitrile] | 0.336
CC(C)Nc1cc(-n2ncc3cc(C#N)cnc32)ncc1-c1cn([C@H]2CCN(C(=O)c3cccnc3)C[C@H]2O)nn1 [Example 184, 1-(5-(1-((3R,4S)-3-hydroxy-1-nicotinoylpiperidin-4-yl)-1H-1,2,3-triazol-4-yl)-4-(isopropylamino)pyridin-2-yl)-1H-pyrazolo[3,4-b]pyridine-5-carbonitrile] | 0.02
CC(C)Nc1cc(-n2ncc3cc(C#N)cnc32)ncc1-c1cn(C2COC2)nn1 [Example 15, 1-(4-(isopropylamino)-5-(1-(oxetan-3-yl)-1H-1,2,3-triazol-4-yl)pyridin-2-yl)-1H-pyrazolo[3,4-b]pyridine-5-carbonitrile] | 0.007
CC(C)Nc1cc(-n2ncc3cc(C#N)cnc32)ncc1-c1cn(C2CNC2)nn1 [Example 138, 1-(5-(1-(azetidin-3-yl)-1H-1,2,3-triazol-4-yl)-4-(isopropylamino)pyridin-2-yl)-1H-pyrazolo[3,4-b]pyridine-5-carbonitrile] | 0.025
CC(C)Nc1cc(-n2ncc3cc(C#N)cnc32)ncc1-n1ccc(-c2cccnc2)n1 [Example 249, 1-(4-(isopropylamino)-5-(3-(pyridin-3-yl)-1H-pyrazol-1-yl)pyridin-2-yl)-1H-pyrazolo[3,4-b]pyridine-5-carbonitrile] | 0.047
CC(C)Nc1cc(-n2ncc3cc(C#N)cnc32)ncc1-n1cc(CF)nn1 [Example 329, 1-(5-(4-(fluoromethyl)-1H-1,2,3-triazol-1-yl)-4-(isopropylamino)pyridin-2-yl)-1H-pyrazolo[3,4-b]pyridine-5-carbonitrile] | 0.034
CC(C)Nc1cc(-n2ncc3cc(C#N)cnc32)ncc1-c1cnn(CC(F)(F)F)c1 [Example 255, 1-(4-(isopropylamino)-5-(1-(2,2,2-trifluoroethyl)-1H-pyrazol-4-yl)pyridin-2-yl)-1H-pyrazolo[3,4-b]pyridine-5-carbonitrile] | 0.039
CCCn1cc(-c2cnc(-n3cnc4cc(C#N)cnc43)cc2NC2CC2)nn1 [Example 43, 3-(4-(cyclopropylamino)-5-(1-propyl-1H-1,2,3-triazol-4-yl)pyridin-2-yl)-3H-imidazo[4,5-b]pyridine-6-carbonitrile] | 0.006
CCCn1cc(-c2cnc(-n3ncc4cc(C#N)cnc43)cc2Nc2cnn(CC)c2)nn1 [Example 58, 1-(4-((1-ethyl-1H-pyrazol-4-yl)amino)-5-(1-propyl-1H-1,2,3-triazol-4-yl)pyridin-2-yl)-1H-pyrazolo [3,4-b]pyridine-5-carbonitrile] | 0.093
CCCc1cn(-c2cnc(-n3cnc4cc(C#N)cnc43)cc2N[C@H](C)CO)nn1 [Example 286, (R)-3-(4-((1-hydroxypropan-2-yl)amino)-5-(4-propyl-1H-1,2,3-triazol-1-yl)pyridin-2-yl)-3H-imidazo[4,5-b]pyridine-6-carbonitrile] | 0.157
CC(C)Nc1cc(-n2ncc3cc(C#N)cnc32)ncc1-n1ccc(CC#N)n1 [Example 250, 1-(5-(3-(cyanomethyl)-1H-pyrazol-1-yl)-4-(isopropylamino)pyridin-2-yl)-1H-pyrazolo[3,4-b]pyridine-5-carbonitrile] | 0.196
CC(C)Nc1cc(-n2ncc3cc(C#N)cnc32)ncc1-c1cn(CC(=O)N2CCN(S(C)(=O)=O)CC2)nn1 [Example 193, 1-(4-(isopropylamino)-5-(1-(2-(4-(methylsulfonyl)piperazin-1-yl)-2-oxoethyl)-1H-1,2,3-triazol-4-yl)pyridin-2-yl)-1H-pyrazolo[3,4-b]pyridine-5-carbonitrile] | 0.004
CCC(C)(O)Cn1cc(-c2cnc(-n3cnc4cc(C#N)cnc43)cc2NC(C)C)nn1 (single isomer, unassigned) [Example 94, 3-(5-(1-(2-hydroxy-2-methylbutyl)-1H-1,2,3-triazol-4-yl)-4-(isopropylamino)pyridin-2-yl)-3H-imidazo[4,5-b]pyridine-6-carbonitrile] | 0.021
CCC(C)(O)Cn1cc(-c2cnc(-n3cnc4cc(C#N)cnc43)cc2NC(C)C)nn1 (single isomer, unassigned) [Example 95, 3-(5-(1-(2-hydroxy-2-methylbutyl)-1H-1,2,3-triazol-4-yl)-4-(isopropylamino)pyridin-2-yl)-3H-imidazo[4,5-b]pyridine-6-carbonitrile] | 0.016
COCc1cn(-c2cnc(-n3ncc4cc(C#N)cnc43)cc2NC(C)C)nn1 [Example 267, 1-(4-(isopropylamino)-5-(4-(methoxymethyl)-1H-1,2,3-triazol-1-yl)pyridin-2-yl)-1H-pyrazolo [3,4-b]pyridine-5-carbonitrile] | 0.083
CC(C)Nc1cc(-n2ncc3cc(C#N)cnc32)ncc1-c1cn([C@@H]2CCN(C(=O)C(C)(C)C)C[C@H]2O)nn1 (single isomer, unassigned) [Example 200] | 0.005
CC(C)Nc1cc(-n2cnc3cc(C#N)cnc32)ncc1-c1cn(CC(O)Cc2ccccc2)nn1 (single isomer, unassigned) [Example 78, 3-(5-(1-(2-hydroxy-3-phenylpropyl)-1H-1,2,3-triazol-4-yl)-4-(isopropylamino)pyridin-2-yl)-3H-imidazo[4,5-b]pyridine-6-carbonitrile] | 0.043
COC(=O)N[C@H]1CC[C@H](c2cc(-c3cnc(-n4ncc5cc(C#N)cnc54)cc3NC(C)C)on2)CC1 [Example 411, methyl ((1s,4s)-4-(5-(6-(5-cyano-1H-pyrazolo[3,4-b]pyridin-1-yl)-4-(isopropylamino)pyridin-3-yl)isoxazol-3-yl)cyclohexyl)carbamate] | 0.003
CC(C)Nc1cc(-n2ncc3cc(C#N)cnc32)ncc1-c1cn(Cc2ccccc2)cn1 [Example 230, 1-(5-(1-benzyl-1H-imidazol-4-yl)-4-(isopropylamino)pyridin-2-yl)-1H-pyrazolo[3,4-b]pyridine-5-carbonitrile] | 0.027
CC(=O)N1CC(n2cc(-c3cnc(-n4ncc5cc(Cl)cnc54)cc3NC(C)C)nn2)C1 [Example 155, 1-(3-(4-(6-(5-chloro-1H-pyrazolo[3,4-b]pyridin-1-yl)-4-(isopropylamino)pyridin-3-yl)-1H-1,2,3-triazol-1-yl)azetidin-1-yl)ethanone] | 0.006
CCn1cnc(-c2cnc(-n3ncc4cc(C#N)cnc43)cc2NC(C)C)c1 [Example 227, 1-(5-(1-ethyl-1H-imidazol-4-yl)-4-(isopropylamino)pyridin-2-yl)-1H-pyrazolo[3,4-b]pyridine-5-carbonitrile] | 0.029
